In patent US8552013B2, “Heterocyclic compounds based on N6-substituted adenine, methods of their preparation, their use for preparation of drugs, cosmetic preparations and growth regulators, pharmaceutical preparations, cosmetic preparations and growth regulators containing these compounds” (USTAV Experimentalni Botaniky Akademie Ved Ceske Republiky, priority 2001, dated 2013):

Experiments:
Human lymphocytes = assay: Immunosuppressive activity, 3H-thymidine incorporation in concanavalin A activated lymphocytes; assay type: cell-based; conditions: Lymphocyte, 72 hours, [3H]-TdR, read-out: Human lymphocytes ED50
From the text: One of the most important parameters of specific cellular immunity is proliferative response of lymphocytes to antigens or polyclonal mitogens. The majority of normal mammalian peripheral lymphocytes comprise resting cells. Antigens or nonspecific polyclonal mitogens have the capacity to activate lymphoid cells and this is accompanied by dramatic changes of intracellular metabolism (mitochondrial activity, protein synthesis, nucleic acids synthesis, formation of blastic cells and cellular proliferation). […] Variety of in vitro assays was developed to measure proliferative response of lymphocytes. The most commonly used is ^3H-thymidine incorporation method.
During cell proliferation, DNA has to be replicated before the cell is divided into two daughter cells. This close association between cell doublings and DNA synthesis is very attractive for assessing cell proliferation. If labelled DNA precursors are added to the cell culture, cells that are about to divide incorporate the labelled nucleotide into their DNA. Traditionally, those assays usually involve the use of radiolabelled nucleosides, particularly tritiated thymidine ([^3H]-TdR). The amount of [^3H]-TdR incorporated into the cellular DNA is quantified by liquid scintillation counting.
Human heparinized peripheral blood was obtained from healthy volunteers by cubital vein punction. The blood was diluted in PBS (1:3) and mononuclear cells were separated by centrifugation in Ficoll-Hypaque density gradient (Pharmacia, 1.077 g/ml) at 2200 rpm for 30 minutes. Following centrifugation, lymphocytes were washed in PBS and resuspended in cell culture medium (RMPI 1640, 2 mM glutamine, 100 U/ml penicillin, 100 μg/ml streptomycin, 10% fetal calf serum and sodium bicarbonate).
The cells were diluted at target density of 1,100,000 cells/ml were added by pipette (180 μl) into 96/well microtiter plates. Four-fold dilutions of the intended test concentration were added at time zero in 20 μl aliquots to the microtiter plate wells. Usually, test compound was evaluated at six 4-fold dilutions. In routine testing, the highest well concentration was 266.7 μM. All drug concentrations were examined in duplicates. All wells with exception of unstimulated controls were activated with 50 μl of concanavalin A (25 μg/ml). Incubations of cells with test compounds lasted for 72 hours at 37° C., in 5% CO2 atmosphere and 100% humidity. At the end of incubation period, the cells were assayed by using the [^3H]-TdR:
Cell cultures were incubated with 0.5 μCi (20 μl of stock solution 500 μCi/ml) per well for 6 hours at 37° C. and 5% CO2. The automated cell harvester was used to lyse cells in water and adsorb the DNA onto glass-fiber filters in the format of microtiter plate. The DNA incorporated [^3H]-TdR was retained on the filter while unincorporated material passes through. The filters were dried at room temperature overnight, sealed into a sample bag with 10-12 ml of scintillant. The amount of [^3H]-TdR present in each filter (in cpm) was determined by scintillation counting in a Betaplate liquid scintillation counter. The effective dose of immunosuppressant (ED) was calculated using the following equation: ED=(CCPMdrug exposed well/mean CCPMcontrol wells)×100%. The ED50 value, the drug concentration inhibiting proliferation of 50% of lymphocytes, was calculated from the obtained dose response curves.

[1] = tested on: human diploid fibroblasts (HCA cells); assay: Senescence, beta-galactosidase staining of human diploid fibroblasts; assay type: cell-based; conditions: for SENESCENT CELLS (%) HCA25: passage 25; for SENESCENT CELLS (%) HCA45: passage 45; for SENESCENT CELLS (%) HCA80: passage 80
Experimental: In this example, human diploid fibroblasts (HCA cells of various passage levels: passage 25—designated HCA25; passage 45—designated HCA45; passage 80—designated HCA80) were stained for β-galactosidase activity. The medium used for cell cultivation was removed, the cells were washed twice in […], and fixed in 2-3 ml of fixing solution comprised of a 2% formaldehyde and 0.2% glutaraldehyde in PBS. The cells were incubated at room temperature for 5 minutes, then washed twice with PBS. The cells were subsequently incubated at 37° C. (without CO2) for 1 to 16 hours in 2-3 ml of a solution comprising potassium ferricyanide (5 mM), potassium ferrocyanide (5 mM), MgCl2 (2 mM), X-gal (5-bromo-4-chloro-3-indolyl-β-D-galactopyranoside) (1 mg/ml), in citric/phosphate buffer, pH 6.0). […] In this experiment, senescent cells, but not other cells were stained blue due to the action of β-galactosidase on the substrate (FIG. 4).

K-562 = assay: Calcein AM cytotoxicity, K-562; assay type: cell-based; conditions: Homo sapiens, K562, 72 h, read-out: IC 50, K-562
From the text: (§1) One of the parameters used, as the basis for cytotoxicity assays, is the metabolic activity of viable cells. For example, a microtiter assay, which uses the Calcein AM, is now widely used to quantitate cell proliferation and cytotoxicity. For instance, this assay is used in drug screening programs and in chemosensitivity testing. Because only metabolically active cells cleave Calcein AM, these assays detect viable cells exclusively. The quantity of reduced Calcein AM corresponds to the number of vital cells in the culture.
(§2) The cells were maintained in Nunc/Corning 80 cm^2 plastic tissue culture flasks and cultured in cell culture medium (DMEM with 5 g/l glucose, 2 mM glutamine, 100 U/ml penicillin, 100 μg/ml streptomycin, 10% fetal calf serum and sodium bicarbonate).
(§3) The cell suspensions that were prepared and diluted according to the particular cell type and the expected target cell density (2.500-30.000 cells per well based on cell growth characteristics) were added by pipette (80 μl) into 96/well microtiter plates. Inoculates were allowed a pre-incubation period of 24 hours at 37° C. and 5% CO2 for stabilisation. Four-fold dilutions of the intended test concentration were added at time zero in 20 μl aliquots to the microtiter plate wells. Usually, test compound was evaluated at six 4-fold dilutions. […] All drug concentrations were examined in duplicates. Incubations of cells with the test compounds lasted for 72 hours at 37° C., in 5% CO2 atmosphere and 100% humidity. At the end of incubation period, the cells were assayed by using the Calcein AM. Ten microliters of the stock solution were pipetted into each well and incubated further for 1 hours. Fluorescence (FD) was measured with the Labsystem FIA Reader Fluoroscan Ascent (UK).

[2] = tested on: breast carcinoma cell line MCF-7; assay: Calcein AM cytotoxicity, MCF7; assay type: cell-based, human; conditions: Homo sapiens, MCF7, 72 h, read-out: IC 50, MCF7
From the text: as §1, §2, §3

B16-F0 melanoma = assay: Calcein AM cytotoxicity, B16-F0; assay type: cell-based; conditions: Mus musculus, B16F0, 72 h, read-out: IC 50, B16-F0
From the text: as §1
(§4) Human T-lymphoblastic leukemia cell line CEM; promyelocytic HL-60 and monocytic U937 leukemias; breast carcinoma cell lines MCF-7, BT549, MDA-MB-231; glioblastoma U87MG cells; cervical carcinoma cells HELA; sarcoma cells U2OS and Saos2; hepatocellular carcinoma HepG2; mouse fibroblasts NIH3T3; mouse immortalized bone marrow macrophages B2.4 and B10A.4; P388D1 and L1210 leukemia; B16 and B16F10 melanomas were used for routine screening of compounds. The cells were maintained in Nunc/Corning 80 cm^2 plastic tissue culture flasks and cultured in cell culture medium (DMEM with 5 g/l glucose, 2 mM glutamine, 100 U/ml penicillin, 100 μg/ml streptomycin, 10% fetal calf serum and sodium bicarbonate).
(§5) The cell suspensions that were prepared and diluted according to the particular cell type and the expected target cell density (2.500-30.000 cells per well based on cell growth characteristics) were added by pipette (80 μl) into 96/well microtiter plates. Inoculates were allowed a pre-incubation period of 24 hours at 37° C. and 5% CO2 for stabilisation. Four-fold dilutions of the intended test concentration were added at time zero in 20 μl aliquots to the microtiter plate wells. Usually, test compound was evaluated at six 4-fold dilutions. In routine testing, the highest well concentration was […], but it can be the matter of change dependent on the agent. All drug concentrations were examined in duplicates. Incubations of cells with the test compounds lasted for 72 hours at 37° C., in 5% CO2 atmosphere and 100% humidity. At the end of incubation period, the cells were assayed by using the Calcein AM. Ten microliters of the stock solution were pipetted into each well and incubated further for 1 hours. Fluorescence (FD) was measured with the Labsystem FIA Reader Fluoroscan Ascent (UK). The tumour cell survival (GI50) was calculated using the following equitation: TCS═(FDdrug exposed well/mean FDcontrol wells)×100%. The GI50 value, the drug concentration lethal to 50% of the tumour cells, was calculated from the obtained dose response curves (FIG. 1).

[3] = tested on: T-lymphoblastic leukemia cell line CEM; assay: Calcein AM cytotoxicity, CEM; assay type: cell-based, human
From the text: as §1, §2, §3

[4] = tested on: promyelocytic HL-60 leukemia; assay: Calcein AM cytotoxicity, HL60; assay type: cell-based, human; conditions: Homo sapiens, HL-60, 72 h, read-out: IC 50, HL60
From the text: as §1, §2, §3

[5] = tested on: Triticum aestivum cv. Hereward leaf tips; assay: Retention of chlorophyll in excised wheat leaf tips; assay type: in vivo; conditions: chlorophyll retention at the concentration with highest activity
In short: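 Tips of first leaves from 7-day wheat (cv. Hereward) seedlings kept on compound solutions (10^−8 to 10^−4 M, from DMSO stock) for 96 h in the dark at 25 °C. Chlorophyll extracted in 80% ethanol at 80 °C and read at 665 nm. Activity at the best concentration expressed relative to 10^−4 M BAP (100%), five replicates.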

[6] = tested on: tobacco callus Nicotiana tabacum L. cv. Wisconsin 38; assay: Cytokinin-dependent tobacco callus growth; assay type: cell-based; conditions: fresh callus weight at the concentration with highest activity
[7] = tested on: Amaranthus caudatus cotyledon/hypocotyl explants; assay: Amaranthus bioassay, betacyanin content; assay type: in vivo; conditions: betacyanin content at the concentration with highest activity
HOS = assay: Calcein AM cytotoxicity, HOS; assay type: cell-based; conditions: Homo sapiens, HOS, 72 h
From the text: as §1, §4, §5

| SMILES | EC50 (Human lymphocytes) [µM] | SENESCENT CELLS (%) HCA25 [1] [%] | SENESCENT CELLS (%) HCA45 [1] [%] | SENESCENT CELLS (%) HCA80 [1] [%] | IC50 (B16-F0 melanoma) [µM] | Activity (%) [10^−4 mol · l^−1 BAP = 100%] [5] | Activity (%) [10^−4 mol · l^−1 BAP = 100%] [6] | activity (%) [10^−5 mol · l^−1 BAP = 100%] [7] | other results |
| --- | --- | --- | --- | --- | --- | --- | --- | --- | --- |
| COc1ccc(CNc2ncnc3nc[nH]c23)c(O)c1 [2-hydroxy-4-methoxybenzylamino, 6-(2-hydroxy-4-methoxybenzylamino)purine] | 1.8 | – | – | – | – | – | – | – | – |
| Nc1cc(Nc2ncnc3nc[nH]c23)ccc1Cl [3-amino-4-chloroanilino, 6-(3-amino-4-chloroanilino)purine] | 8.3 | 4 | 6 | 22 | – | – | – | – | – |
| Nc1ccc(Nc2ncnc3nc[nH]c23)cc1Cl [3-chloro-4-aminoanilino, 6-(3-chloro-4-aminoanilino)purine] | 12 | 5 | 5 | 24 | – | – | – | – | – |
| Nc1cc(Cl)cc(Nc2ncnc3nc[nH]c23)c1 [3-chloro-5-aminoanilino, 6-(3-chloro-5-aminoanilino)purine] | 12.4 | 3 | 6 | 24 | – | – | – | – | – |
| Clc1cccc(Nc2ncnc3nc[nH]c23)c1 [3-chloroanilino, 6-(3-chloroanilino)purine] | 7.2 | 4 | 5 | 25 | – | – | – | – | – |
| Brc1ccc(Nc2ncnc3nc[nH]c23)cc1 [4-bromoanilino, 6-(4-bromoanilino)purine] | 4.7 | 5 | 3 | 25 | – | – | – | – | – |
| Clc1ccc(Nc2ncnc3nc[nH]c23)cc1 [4-chloroanilino, 6-(4-chloroanilino)purine] | 6.2 | 5 | 5 | 26 | – | – | – | – | – |
| Fc1ccc(CNc2ncnc3nc[nH]c23)cc1Cl [6-(3-chloro-4-fluorobenzylamino)purine] | – | – | – | – | > 167 | 141 (±20) % | 90 (±1) % | 91 (±7) % | IC50 (K-562): > 167 µM; IC50 [2]: > 167 µM; IC50 ([3]; 72 hours, listed as 3Cl4F BAP): 95.8 µM; IC50 ([3]; Homo sapiens, 72 h): 135 µM; IC50 [4]: > 167 µM |
| Cc1cccc(CNc2ncnc3nc[nH]c23)c1 [6-(3-methylbenzylamino)purine] | – | – | – | – | 164 | 111 (±16) % | 79 (±5) % | 84 (±14) % | IC50 (K-562): > 167 µM; IC50 [2]: 102 µM; IC50 ([3]; Homo sapiens, 72 h): > 167 µM; IC50 [4]: > 167 µM |
| COc1ccc(CNc2ncnc3nc[nH]c23)cc1 [6-(4-methoxybenzylamino)purine] | – | – | – | – | 84.7 | 79 (±6) % | 39 (±17) % | 23 (±2) % | IC50 (HOS): > 167 µM |
